Results published in the NIST ThermoML archive (doi:10.1016/j.tca.2014.03.030).
± gives the expanded uncertainty stated by the source.

What was measured:
[1] = DTA
[2] = Molar enthalpy of transition or fusion

Question: Which Normal melting temperature ([1]; Crystal) does the source give for `CCCCCCCCCC(=O)NCCc1ccc(O)cc1` [N-[2-(4-hydroxyphenyl)ethyl]decanamide] here?
Answer: 81.47 ± 2.1 °C

Question: And the “Molar enthalpy of transition or fusion” value ([2]; Crystal)?
Answer: 5.08 ± 0.311 kcal/mol

Question: Which results are given for `CCCCCCCCCCCC(=O)NCCc1ccc(O)cc1` [N-[2-(4-hydroxyphenyl)ethyl]dodecanamide]?
Answer: Normal melting temperature ([1]; Crystal): 91.39 ± 2.1 °C; Molar enthalpy of transition or fusion ([2]; Crystal): 6.69 ± 0.382 kcal/mol

Question: For `CCCCCCCCCCCCCCCC(=O)NCCc1ccc(O)cc1` [N-[2-(4-hydroxyphenyl)ethyl]hexadecanamide], which Normal melting temperature ([1]; Crystal 1) is on record?
Answer: 103.76 ± 2.1 °C

Question: What about the “Molar enthalpy of transition or fusion” value ([2]; Crystal 1) of the same molecule?
Answer: 11.8 ± 0.645 kcal/mol

Question: Which Normal melting temperature ([1]; Crystal 1) does the source give for `CCCCCCCCCCCCCC(=O)NCCc1ccc(O)cc1` [N-[2-(4-hydroxyphenyl)ethyl]tetradecanamide] here?
Answer: 98.1 ± 2.1 °C

Question: What about the “Molar enthalpy of transition or fusion” value ([2]; Crystal 1) of the same molecule?
Answer: 10.4 ± 0.574 kcal/mol
